Patent US12391667B2, “N-methyl, n-(6-(methoxy)pyridazin-3-yl) amine derivatives as Autotaxin (ATX) modulators for the treatment of inflammatory airway or fibrotic diseases” (Boehringer Ingelheim International GmbH, priority 2019, dated 2025)

Key:
LPA levels = details: as disclosed in literature; cited from earlier work
[1] = test system: plasma LPA (ATX inhibition); experiment: Assay C: In vivo plasma LPA reduction after oral dosing; details: rats, 5 mg/kg, 8 hours post application, sum of LPA vs baseline
Method: The test substance was solubilized in 0.5% natrosol supplemented with 0.015% Tween 80 for oral application to rats at a dose of 5 mg/kg. Blood samples were collected before compound administration and 8 hours post application on ice using EDTA as coagulation agent. Subsequently, plasma was prepared by centrifugation and stored until analysis at −20° C.
LPAs from plasma samples were extracted by using the procedure described by Scherer et al. (Clinical chemistry 2009, 55, 1218-22). 35 μL of heparinized plasma was mixed with 200 μL 40 mM disodium hydrogen phosphate buffer containing 30 mM citric acid (pH 4) and 1 μM 17:0 LPA (internal standard). Subsequently, 500 μL butanol was added and shaken vigorously for 10 min. Samples were centrifuged afterwards at 4000 rpm, 4° C., for 10 min. 500 μL of the organic upper phase was transferred to a fresh 96-deep-well plate and evaporated with a gentle nitrogen flow of 15 psi for 45 min. The resultant residual was dissolved in 100 μL ethanol prior to LC-MS analysis.
LC-MS Method for the Analytic of In Vivo Samples
A Triple Quad 6500 (ABSciex, Toronto, Canada) was equipped with an Agilent 1290 LC system (Agilent, Santa Clara, CA) a CTC autosampler and an Atlantis 50×2.1-mm, 3-μm HILIC LC column (Waters, Elstree, UK). Eluent A contained 0.2% formic acid and 50 mM ammonium formate in water, whereas eluent B consisted of 0.2% formic acid in acetonitrile. […] At 1.8 min, solvent B was set back to 95% and stayed constant for 0.7 min for re-equilibration of the column. The following LPA species were monitored (DP: declustering potential and CE: collision energy): 16:0 LPA at 409.2/152.8, DP=−150, CE=−28; 18:0 LPA at 437.3/152.8, DP=−60, CE=−28; 18:1 LPA at 435.2/152.8, DP=−40, CE=−28; 18:2 LPA at 433.2/152.8, DP=−150, CE=−28; 20:4 LPA at 457.2/152.8, DP=−100, CE=−29 and 17:0 LPA at 423.5/152.8, DP=−100, CE=−36. LPA depletion in percent was calculated based on the baseline LPA levels before test compound application. The sum of LPA refers to the species 16:0; 18:0; 18:1; 18:2 and 20:4

Human ATX = Human ATX (Homo sapiens (Human), UniProt Q13822); experiment: Assay A: Biochemical ATX Assay; details: 5 nM recombinant ATX, 18:1 LPC substrate, 2 h at room temperature, formation of 18:1 LPA
Method: 5 nM recombinant ATX (Cayman Chemicals) was supplemented to 50 mM Tris buffer (pH 8.0) containing 3 mM KCl, 1 mM CaCl2), 1 mM MgCl2 0.14 mM NaCl, and 0.1% bovine serum albumin. Test compounds were dissolved in DMSO and tested in the range of 0.1 nM to 10 μM. The enzymatic reaction (22.5 μL) was started by addition of 2.5 μL 10 μM 18:1 LPC (Avanti Lipids, Alabaster, AL, USA). After 2-h incubation at room temperature, the reaction was stopped by addition of 20 μL water containing 500 nM 20:4 LPA as internal standard and 100 μL 1-butanol for extracting LPA. Subsequently, the plates were centrifuged at 4000 rpm, 4° C., for 2 min. The resultant upper butanol phase was directly used for injection at a RapidFire system (Agilent).
The RapidFire autosampler was coupled to a binary pump (Agilent 1290) and a Triple Quad 6500 (ABSciex, Toronto, Canada). […] 1 The MS was operated in negative mode with a source temperature of 550° C., curtain gas=35, gas 1=65, and gas 2=80. The following transitions and MS parameters (DP: declustering potential and CE: collision energy) for the respective LPAs were determined: 18:1 LPA at 435.2/152.8, DP=−40, CE=−28 and 20:4 LPA at 457.2/152.8, DP=−100, CE=−27).
The formation of 18:1 LPA was monitored and evaluated as ratio to 20:4 LPA.

ATX in human whole blood = ATX in human whole blood (Homo sapiens (Human), UniProt Q13822); experiment: Assay B: Whole-Blood ATX assay; format: biochemical; details: 1 h at 37° C., formation of 18:2 LPA
Method: 45 μL human whole-blood was supplemented with 5 μL of the test compound, dissolved in phosphate-buffered saline (concentration range 0.12 nM-100 μM). This mixture was incubated for 1 h at 37° C. and stopped by addition of 100 μL 40 mM disodium hydrogen phosphate buffer containing 30 mM citric acid (pH 4) and 1 μM 17:0 LPA (internal standard). LPA was extracted by addition of 500 μL 1-butanol, followed by 10-min centrifugation at 4000 rpm, 4° C. From the resultant organic supernatant, a 200 μL aliquot was transferred into a 96-deep-well plate and transferred to the RapidFire-based MS/MS measurement.
The RapidFire autosampler was coupled to a binary pump (Agilent 1290) and a Triple Quad 6500 (ABSciex, Toronto, Canada). This system was equipped with a 10-μL loop, 5-μL Waters Atlantis HILIC cartridge (Waters, Elstree, UK), 90% acetonitrile containing 10 mM ammonium acetate as eluent A and 40% acetonitrile containing 10 mM ammoniumacetate as eluent B. For details see (Bretschneider et al., SLAS Discovery, 2017, 22, 425-432). The MS was operated in negative mode with a source temperature of 550° C., curtain gas=35, gas 1=65, and gas 2=80. The following transitions and MS parameters (DP: declustering potential and CE: collision energy) for the respective LPAs were determined: 18:2 LPA at 433.2/152.8, DP=−150, CE=−27 and 17:0 LPA at 423.5/152.8, DP=−100.
The formation of 18:2 LPA was monitored and evaluated as ratio to 17:0 LPA.

| Structure (SMILES) | reduction of LPA levels in vivo (LPA levels) | LPA reduction at 8 h [1] | IC50 (Human ATX) | IC50 (ATX in human whole blood) |
| --- | --- | --- | --- | --- |
| O=C(NC[C@@H]1[C@H]2CN(C(=O)OCc3cc(C(F)(F)F)cc(C(F)(F)F)c3)C[C@@H]12)c1ccc2[nH]nnc2c1 | significantly reduces LPA levels in vivo |  |  |  |
| CC(=O)N1CCN(c2ccc(C3(Nc4ccc(OCc5ccc(C(F)(F)F)nc5)nn4)CC3)cc2)CC1 [Example 1.1, 1-[4-(4-{1-[(6-{[6-(trifluoromethyl)pyridin-3-yl]methoxy}pyridazin-3-yl)amino]cyclopropyl}phenyl)piperazin-1-yl]ethan-1-one] |  | 97.0% | 2.5 nM | 3.5 nM |
| CC(=O)N1CCN(c2ccc([C@@H](C)Nc3ccc(OCc4ccc(C(F)(F)F)nc4)nn3)cc2)CC1 [Example 1.2] |  | 95.9% | 3.4 nM | 1.8 nM |
| CC(=O)N1CCN(c2ccc(C(C)Nc3ccc(OCc4ccc(C(F)(F)F)nc4)nn3)cc2)CC1 (centres unmarked) [Example 1.3] |  |  | 2.2 nM | 2 nM |
| CC(=O)N(C)C1CCN(c2ccc(C3(Nc4ccc(OCc5ccc(C(F)F)nc5)nn4)CC3)cc2)CC1 [Example 1.4] |  | 98.0% | 5.8 nM | 4.3 nM |
| CC(=O)N1CCN(c2ccc(C3(Nc4ccc(OCc5ccc(C(F)F)nc5)nn4)CC3)cc2)CC1 [Example 1.5] |  |  | 4.2 nM | 4.3 nM |
| CC(=O)N1CCN(c2ccc([C@H](C)Nc3ccc(OCc4ccc(C(F)(F)F)nc4)nn3)cc2)CC1 [Example 1.6] |  |  | 2.6 nM | 7.8 nM |
| CC(=O)N(C)C1CCN(c2ccc(C3(Nc4ccc(OCc5ccc(C(F)F)nc5)nn4)CC3)cc2)C1 (centres unmarked) [Example 1.7] |  |  | 6.7 nM | 7 nM |
| CC(=O)N1CCN(c2ccc([C@@H](CO)Nc3ccc(OCc4ccc(C(F)F)nc4)nn3)cc2)CC1 [Example 1.8] |  |  | 4.2 nM | 1.3 nM |
| CC(=O)N1CCN(c2ccc([C@@H](CO)Nc3ccc(OCc4ccc(C(F)(F)F)nc4)nn3)cc2)CC1 [Example 1.9] |  |  | 5.3 nM | 5 nM |
| CC(=O)N1CCN(c2ccc(C3(Nc4ccc(OCc5ccc(C(F)(F)F)nc5)nn4)CC3)cc2F)CC1 [Example 1.10] |  |  | 2.4 nM | 3.7 nM |
| CC(=O)N1CCN(c2ccc(C3(Nc4ccc(OCc5ccc(C(F)(F)F)nc5)nn4)CC3)cn2)CC1 [Example 1.11] |  | 96.3% | 4.4 nM | 6.9 nM |
| CC(=O)N1CCN(c2ccc(C3(Nc4ccc(OCc5ccc(C(F)(F)F)nc5)nn4)CC3)c(F)c2)CC1 [Example 1.12] |  |  | 4.8 nM | 7.7 nM |
| CC(=O)N1CCN(c2ccc(C3(Nc4ccc(OCc5ccc(C(F)(F)F)nc5)nn4)CC3)cc2C)CC1 [Example 1.13] |  |  | 3.4 nM | 7.1 nM |
| CCc1nc2c(C)cc(N3CCN(CC(=O)N4CC(O)C4)CC3)cn2c1N(C)c1nc(-c2ccc(F)cc2)c(C#N)s1 [Example 2 in WO2014/139882, reference compound] |  | 58.1% |  |  |
